{
  "source": "patent US7132234B2",
  "about": "“Methods and compositions for the identification of anti-poxvirus agents” (priority 2003, dated 2006)",
  "test_system": "26S proteasome-mediated degradation of SP28",
  "format": "cell-based",
  "note": "Where a SMILES comes first, the peptide text is derived from it. The star is where a group is joined. Cbz = O=C(OCc1ccccc1)*",
  "data": [
    {"molecule": "CC(C)C[C@@H](C=O)NC(=O)[C@H](CC(C)C)NC(=O)[C@H](CC(C)C)NC(=O)OCc1ccccc1", "note": "[MG132] (Cbz-Leu-Leu-Leu-aldehyde)", "values": [
      {"measurement": "Stability of SP28 C173A/H199A mutant in cells", "value": "also stabilized by MG132, although to a much lesser extent"},
      {"measurement": "Stability of wild-type SP28 in cells", "value": "remarkably enhanced stability of wild-type SP28"}
    ]}
  ]
}
